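Where inhibition never reached the appropriate level, the endpoint shown equals the highest concentration tested. Otherwise, values were interpolated linearly from a five-concentration, 48-hour dose response in 96-well plates. GI50: concentration for 50% inhibition of growth.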 Calls of active or inactive are those of the source. No stated cut-off is given here; in the data, active = GI50 up to about 1.1 µM and inactive = higher.
Key:
Assay in all cases: NCI tumour cell line growth inhibition, 48 h
786-0 = test system: 786-0
A498 = test system: A498
A549 = test system: A549
ACHN = test system: ACHN
BT-549 = test system: BT-549
CAKI-1 = test system: CAKI-1
CCRF-CEM = test system: CCRF-CEM
COLO 205 = test system: COLO 205
DU-145 = test system: DU-145
EKVX = test system: EKVX
HCC 2998 = test system: HCC 2998
HCT-116 = test system: HCT-116
HCT-15 = test system: HCT-15
HL-60 = test system: HL-60
HOP-62 = test system: HOP-62
HOP-92 = test system: HOP-92
HT-29 = test system: HT-29
Hs-578T = test system: Hs-578T
IGROV-1 = test system: IGROV-1
K562 = test system: K562
KM12 = test system: KM12
LOX IMVI = test system: LOX IMVI
M14 = test system: M14
MCF7 = test system: MCF7
MDA-MB-231 = test system: MDA-MB-231
MDA-MB-435 = test system: MDA-MB-435
MOLT-4 = test system: MOLT-4
Malme-3M = test system: Malme-3M
NCI-H226 = test system: NCI-H226
NCI-H23 = test system: NCI-H23
NCI-H460 = test system: NCI-H460
NCI-H522 = test system: NCI-H522
NCI/ADR-RES = test system: NCI/ADR-RES
OVCAR-3 = test system: OVCAR-3
OVCAR-4 = test system: OVCAR-4
OVCAR-5 = test system: OVCAR-5
OVCAR-8 = test system: OVCAR-8
PC-3 = test system: PC-3
RPMI-8226 = test system: RPMI-8226
RXF 393 = test system: RXF 393
SF-268 = test system: SF-268
SF-295 = test system: SF-295
SF-539 = test system: SF-539
SK-MEL-28 = test system: SK-MEL-28
SK-MEL-2 = test system: SK-MEL-2
SK-MEL-5 = test system: SK-MEL-5
SN12C = test system: SN12C
SNB-19 = test system: SNB-19
SNB-75 = test system: SNB-75
SR = test system: SR
SW-620 = test system: SW-620
T47D = test system: T47D
TK-10 = test system: TK-10
U-251 = test system: U-251
UACC-257 = test system: UACC-257
UACC-62 = test system: UACC-62
UO-31 = test system: UO-31
MDA-N = test system: MDA-N
SK-OV-3 = test system: SK-OV-3

CCOC(=O)c1nc2ccccc2nc1Nc1ccc(OC)cc1
GI50 (786-0): 27.6 µM (inactive)
GI50 (A498): 18.6 µM (inactive)
GI50 (A549): 51.2 µM (inactive)
GI50 (ACHN): 32.4 µM (inactive)
GI50 (BT-549): 24 µM (inactive)
GI50 (CAKI-1): 13.8 µM (inactive)
GI50 (CCRF-CEM): > 100 µM (inactive)
GI50 (COLO 205): > 100 µM (inactive)
GI50 (DU-145): 73.1 µM (inactive)
GI50 (EKVX): 47.8 µM (inactive)
GI50 (HCC 2998): > 100 µM (inactive)
GI50 (HCT-116): 42.3 µM (inactive)
GI50 (HCT-15): > 100 µM
GI50 (HL-60): > 100 µM (inactive)
GI50 (HOP-62): 15 µM (inactive)
GI50 (HOP-92): 22.5 µM (inactive)
GI50 (HT-29): > 100 µM (inactive)
GI50 (Hs-578T): 41.2 µM (inactive)
GI50 (IGROV-1): 50.6 µM (inactive)
GI50 (K562): > 100 µM (inactive)
GI50 (KM12): > 100 µM (inactive)
GI50 (LOX IMVI): > 100 µM (inactive)
GI50 (M14): > 100 µM (inactive)
GI50 (MCF7): > 100 µM (inactive)
GI50 (MDA-MB-231): 20.6 µM (inactive)
GI50 (MDA-MB-435): > 100 µM (inactive)
GI50 (MOLT-4): > 100 µM (inactive)
GI50 (Malme-3M): 93.8 µM (inactive)
GI50 (NCI-H226): 37.5 µM (inactive)
GI50 (NCI-H23): 54.2 µM (inactive)
GI50 (NCI-H460): 40 µM (inactive)
GI50 (NCI-H522): 23.8 µM (inactive)
GI50 (NCI/ADR-RES): 34.8 µM (inactive)
GI50 (OVCAR-3): 19.7 µM (inactive)
GI50 (OVCAR-4): 18.5 µM (inactive)
GI50 (OVCAR-5): 83.8 µM (inactive)
GI50 (OVCAR-8): 73.3 µM (inactive)
GI50 (PC-3): 31.4 µM (inactive)
GI50 (RPMI-8226): > 100 µM (inactive)
GI50 (RXF 393): 17.5 µM (inactive)
GI50 (SF-268): 51.6 µM (inactive)
GI50 (SF-295): 19.5 µM (inactive)
GI50 (SF-539): 22 µM (inactive)
GI50 (SK-MEL-28): 54.7 µM (inactive)
GI50 (SK-MEL-2): 33.7 µM (inactive)
GI50 (SK-MEL-5): 30 µM (inactive)
GI50 (SN12C): 14.8 µM (inactive)
GI50 (SNB-19): 16.5 µM (inactive)
GI50 (SNB-75): 37.9 µM (inactive)
GI50 (SR): > 100 µM (inactive)
GI50 (SW-620): > 100 µM (inactive)
GI50 (T47D): 43.5 µM (inactive)
GI50 (TK-10): 25.7 µM (inactive)
GI50 (U-251): 35.1 µM (inactive)
GI50 (UACC-257): 49.5 µM (inactive)
GI50 (UACC-62): 28.5 µM (inactive)
GI50 (UO-31): 88.7 µM (inactive)

N#Cc1c(-c2cccc(Br)c2)cc(-c2ccc(Cl)cc2)nc1N
GI50 (786-0): 20.3 µM (inactive)
GI50 (A549): 21 µM (inactive)
GI50 (ACHN): 21.8 µM (inactive)
GI50 (BT-549): 33 µM (inactive)
GI50 (CAKI-1): 25.6 µM (inactive)
GI50 (CCRF-CEM): 27.2 µM (inactive)
GI50 (COLO 205): 13.7 µM (inactive)
GI50 (DU-145): 46 µM (inactive)
GI50 (EKVX): 10.5 µM (inactive)
GI50 (HCC 2998): 17.3 µM (inactive)
GI50 (HCT-116): 16.1 µM (inactive)
GI50 (HCT-15): 14.1 µM
GI50 (HL-60): 31 µM (inactive)
GI50 (HOP-62): 23.5 µM (inactive)
GI50 (HOP-92): 11.2 µM (inactive)
GI50 (HT-29): 18.7 µM (inactive)
GI50 (Hs-578T): 19.1 µM (inactive)
GI50 (IGROV-1): 14 µM (inactive)
GI50 (K562): 25.6 µM (inactive)
GI50 (KM12): 20.9 µM (inactive)
GI50 (LOX IMVI): 15.8 µM (inactive)
GI50 (M14): 20.7 µM (inactive)
GI50 (MCF7): 26.2 µM (inactive)
GI50 (MDA-MB-435): 18.2 µM (inactive)
GI50 (MDA-N): 20.5 µM (inactive)
GI50 (MOLT-4): 15.8 µM (inactive)
GI50 (Malme-3M): 23.7 µM (inactive)
GI50 (NCI-H226): 17.5 µM (inactive)
GI50 (NCI-H23): 25 µM (inactive)
GI50 (NCI-H460): 21.2 µM (inactive)
GI50 (NCI-H522): 14.1 µM (inactive)
GI50 (NCI/ADR-RES): 22.2 µM (inactive)
GI50 (OVCAR-3): 25.4 µM (inactive)
GI50 (OVCAR-4): 0.514 µM (active)
GI50 (OVCAR-5): 25.5 µM (inactive)
GI50 (OVCAR-8): 32 µM (inactive)
GI50 (PC-3): 22.2 µM (inactive)
GI50 (RPMI-8226): 17 µM (inactive)
GI50 (RXF 393): 15.8 µM (inactive)
GI50 (SF-268): 24.8 µM (inactive)
GI50 (SF-295): 16.6 µM (inactive)
GI50 (SF-539): 18.1 µM (inactive)
GI50 (SK-MEL-2): 11.6 µM (inactive)
GI50 (SK-MEL-5): 15.2 µM (inactive)
GI50 (SK-OV-3): 16.8 µM (inactive)
GI50 (SN12C): 19.1 µM (inactive)
GI50 (SNB-19): 18.7 µM (inactive)
GI50 (SR): 19.1 µM (inactive)
GI50 (SW-620): 18.2 µM (inactive)
GI50 (T47D): 29 µM (inactive)
GI50 (TK-10): 18.7 µM (inactive)
GI50 (U-251): 16.4 µM (inactive)
GI50 (UACC-257): 17.3 µM (inactive)
GI50 (UACC-62): 15.3 µM (inactive)
GI50 (UO-31): 19 µM (inactive)

COC(=O)CSc1cc(Cl)c(C)cc1S(=O)(=O)Nc1n[nH]c(N)n1
GI50 (786-0): > 10 µM (inactive)
GI50 (A498): > 10 µM (inactive)
GI50 (A549): > 10 µM (inactive)
GI50 (ACHN): > 10 µM (inactive)
GI50 (BT-549): > 10 µM (inactive)
GI50 (CAKI-1): > 10 µM (inactive)
GI50 (CCRF-CEM): > 10 µM (inactive)
GI50 (COLO 205): > 10 µM (inactive)
GI50 (DU-145): > 10 µM (inactive)
GI50 (EKVX): > 10 µM (inactive)
GI50 (HCC 2998): > 10 µM (inactive)
GI50 (HCT-116): > 10 µM (inactive)
GI50 (HCT-15): > 10 µM
GI50 (HL-60): > 10 µM (inactive)
GI50 (HOP-62): > 10 µM (inactive)
GI50 (HOP-92): > 10 µM (inactive)
GI50 (HT-29): > 10 µM (inactive)
GI50 (Hs-578T): > 10 µM (inactive)
GI50 (IGROV-1): > 10 µM (inactive)
GI50 (K562): > 10 µM (inactive)
GI50 (KM12): > 10 µM (inactive)
GI50 (LOX IMVI): > 10 µM (inactive)
GI50 (M14): > 10 µM (inactive)
GI50 (MCF7): > 10 µM (inactive)
GI50 (MDA-N): > 10 µM (inactive)
GI50 (MOLT-4): > 10 µM (inactive)
GI50 (Malme-3M): > 10 µM (inactive)
GI50 (NCI-H226): > 10 µM (inactive)
GI50 (NCI-H23): > 10 µM (inactive)
GI50 (NCI-H460): > 10 µM (inactive)
GI50 (NCI-H522): > 10 µM (inactive)
GI50 (NCI/ADR-RES): > 10 µM (inactive)
GI50 (OVCAR-3): > 10 µM (inactive)
GI50 (OVCAR-4): > 10 µM (inactive)
GI50 (OVCAR-5): > 10 µM (inactive)
GI50 (OVCAR-8): > 10 µM (inactive)
GI50 (PC-3): > 10 µM (inactive)
GI50 (RPMI-8226): > 10 µM (inactive)
GI50 (RXF 393): > 10 µM (inactive)
GI50 (SF-268): > 10 µM (inactive)
GI50 (SF-295): > 10 µM (inactive)
GI50 (SF-539): > 10 µM (inactive)
GI50 (SK-MEL-28): > 10 µM (inactive)
GI50 (SK-MEL-2): > 10 µM (inactive)
GI50 (SK-MEL-5): > 10 µM (inactive)
GI50 (SK-OV-3): > 10 µM (inactive)
GI50 (SN12C): > 10 µM (inactive)
GI50 (SNB-19): > 10 µM (inactive)
GI50 (SNB-75): > 10 µM (inactive)
GI50 (SR): > 10 µM (inactive)
GI50 (SW-620): > 10 µM (inactive)
GI50 (T47D): > 10 µM (inactive)
GI50 (TK-10): > 10 µM (inactive)
GI50 (U-251): > 10 µM (inactive)
GI50 (UACC-257): > 10 µM (inactive)
GI50 (UO-31): > 10 µM (inactive)
